Test: Diffusion of fluorescein or calcein through a droplet interface bilayer in an AM-EWOD device
Format: physicochemical
Method: An investigation of the transport of aqueous phase elements between droplets suspended in a non-aqueous supporting medium is conducted. Phospholipid stabilized water in oil droplets are dispensed within an AM-EWOD device. Such droplets are used to produce droplet interface bilayers (DIBs) by the bringing together of individual droplets within the AM-EWOD device. DIBs are used to study diffusion of a solute across the bilayer membrane, as well as to study active transport through pores or ion channels formed in the DIB. In a first experiment, diffusion of fluorescein or calcein through a bilayer is investigated. Under conditions of neutral pH, calcein, a derivative of fluorescein, is generally more polar than fluorescein. […] Thus, fluorescein may more readily diffuse through a bilayer, whereas calcein may not. Three populations of droplets are dispensed within an AM-EWOD device. A first population contains buffer, a second population contains fluorescein at 100 μM concentration, and a third population contains calcein at 100 μM concentration. Droplets containing buffer are brought into contact respectively with droplets containing fluorescein or calcein, under control of the AM-EWOD device. Fluorescence intensity is determined at time t0, t1 (30 minutes) and t2 (60 minutes), with excitation wavelength 494 nm and emission wavelength 515 nm.

O=C(O)CN(CC(=O)O)Cc1cc2c(cc1O)Oc1cc(O)c(CN(CC(=O)O)CC(=O)O)cc1C21OC(=O)c2ccccc21 [calcein]
Fluorescence from the buffer containing droplet after DIB formation (after 60 minutes, 100 μM dye droplet, excitation 494 nm, emission 515 nm): no detectable fluorescence
Diffusion across the bilayer (summary of results): not

Reference: patent US11219898B2, “Molecular separation by diffusion using an EWOD device” (Sharp Life Science (EU) Limited, priority 2019, dated 2022)
